What was measured:
Test in all cases: relative viability (nuclei count vs DMSO), 5 days (fraction); higher = more cells survive
HCC-366 = system: HCC-366
Outline: (§1)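 Lung cancer cell lines, seeded in 1536-well plates, were treated the following day by pin tool with a single drug or with five library-drug doses (not always all listed) in √10 steps on top of a fixed anchor-drug dose. Cells were fixed and nuclei stained in one step after 5 days, and nuclei were counted. Relative viability is the nuclei count for treated wells divided by that for vehicle wells, reported as medians of duplicate plates.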

COR-L 105 = system: COR-L 105
Outline: as §1

EMC-BAC-2 = system: EMC-BAC-2
Outline: as §1

NCI-H1395 = system: NCI-H1395
Outline: as §1

NCI-H1437 = system: NCI-H1437
Outline: as §1

CAL-12T = system: CAL-12T
Outline: as §1

NCI-H460 = system: NCI-H460
Outline: as §1

NCI-H522 = system: NCI-H522
Outline: as §1

NCI-H727 = system: NCI-H727
Outline: as §1

NCI-H1755 = system: NCI-H1755
Outline: as §1

LCLC-103H = system: LCLC-103H
Outline: as §1

NCI-H1915 = system: NCI-H1915
Outline: as §1

NCI-H2009 = system: NCI-H2009
Outline: as §1

NCI-H23 = system: NCI-H23
Outline: as §1

NCI-H2228 = system: NCI-H2228
Outline: as §1

HOP-62 = system: HOP-62
Outline: as §1

HCC-827 = system: HCC-827
Outline: as §1

SW 1573 = system: SW 1573
Outline: as §1

SK-LU-1 = system: SK-LU-1
Outline: as §1

A-427 = system: A-427
Outline: as §1

HARA = system: HARA
Outline: as §1

NCI-H1792 = system: NCI-H1792
Outline: as §1

For `CCN(CC)CCCCNc1ncc2cc(-c3cc(OC)cc(OC)c3)c(NC(=O)NC(C)(C)C)nc2n1` + Cc1nc(Nc2ncc(C(=O)Nc3c(C)cccc3Cl)s2)cc(N2CCN(CCO)CC2)n1 [Dasatinib] (partner 0.075 µM), the relative viability (HCC-366; first compound 0.01 µM) was 0.601, the relative viability (HCC-366; first compound 0.03162 µM) was 0.686 and the relative viability (HCC-366; first compound 0.1 µM) was 0.942. It also gave a relative viability (HCC-366; first compound 0.3162 µM) of 0.659, a relative viability (HCC-366; first compound 1 µM) of 0.613 and a relative viability (COR-L 105; first compound 0.01 µM) of 0.297. It also gave a relative viability (COR-L 105; first compound 0.03162 µM) of 0.282, a relative viability (COR-L 105; first compound 0.1 µM) of 0.354 and a relative viability (COR-L 105; first compound 0.3162 µM) of 0.381. The relative viability (COR-L 105; first compound 1 µM) was 0.279, the relative viability (EMC-BAC-2; first compound 0.01 µM) was 0.189 and the relative viability (EMC-BAC-2; first compound 0.03162 µM) was 0.359. The relative viability (EMC-BAC-2; first compound 0.1 µM) was 0.304, the relative viability (EMC-BAC-2; first compound 0.3162 µM) was 0.348 and the relative viability (EMC-BAC-2; first compound 1 µM) was 0.3. For the same molecule, the relative viability (NCI-H1395; first compound 0.01 µM) was 0.421, the relative viability (NCI-H1395; first compound 0.03162 µM) was 0.422 and the relative viability (NCI-H1395; first compound 0.1 µM) was 0.753. It also gave a relative viability (NCI-H1395; first compound 0.3162 µM) of 0.386, a relative viability (NCI-H1395; first compound 1 µM) of 0.411 and a relative viability (NCI-H1437; first compound 0.01 µM) of 0.366. The relative viability (NCI-H1437; first compound 0.03162 µM) was 0.504, the relative viability (NCI-H1437; first compound 0.1 µM) was 0.419 and the relative viability (NCI-H1437; first compound 0.3162 µM) was 0.447. The relative viability (NCI-H1437; first compound 1 µM) was 0.335, the relative viability (CAL-12T; first compound 0.01 µM) was 0.389 and the relative viability (CAL-12T; first compound 0.03162 µM) was 0.525. The relative viability (CAL-12T; first compound 0.1 µM) was 0.435, the relative viability (CAL-12T; first compound 0.3162 µM) was 0.371 and the relative viability (CAL-12T; first compound 1 µM) was 0.417. The relative viability (NCI-H460; first compound 0.01 µM) was 0.538, the relative viability (NCI-H460; first compound 0.03162 µM) was 0.464 and the relative viability (NCI-H460; first compound 0.1 µM) was 0.81. For the same molecule, the relative viability (NCI-H460; first compound 0.3162 µM) was 0.709, the relative viability (NCI-H460; first compound 1 µM) was 0.395 and the relative viability (NCI-H522; first compound 0.01 µM) was 0.862. The relative viability (NCI-H522; first compound 0.03162 µM) was 1.01, the relative viability (NCI-H522; first compound 0.1 µM) was 1 and the relative viability (NCI-H522; first compound 0.3162 µM) was 0.879. For the same molecule, the relative viability (NCI-H522; first compound 1 µM) was 0.79, the relative viability (NCI-H727; first compound 0.01 µM) was 0.177 and the relative viability (NCI-H727; first compound 0.03162 µM) was 0.424. The relative viability (NCI-H727; first compound 0.1 µM) was 0.385, the relative viability (NCI-H727; first compound 0.3162 µM) was 0.507 and the relative viability (NCI-H727; first compound 1 µM) was 0.351. For the same molecule, the relative viability (NCI-H1755; first compound 0.01 µM) was 0.394, the relative viability (NCI-H1755; first compound 0.03162 µM) was 0.464 and the relative viability (NCI-H1755; first compound 0.1 µM) was 0.518. For the same molecule, the relative viability (NCI-H1755; first compound 0.3162 µM) was 0.621, the relative viability (NCI-H1755; first compound 1 µM) was 0.207 and the relative viability (LCLC-103H; first compound 0.01 µM) was 0.424. The relative viability (LCLC-103H; first compound 0.03162 µM) was 0.623, the relative viability (LCLC-103H; first compound 0.1 µM) was 0.596 and the relative viability (LCLC-103H; first compound 0.3162 µM) was 0.554. It also gave a relative viability (LCLC-103H; first compound 1 µM) of 0.331, a relative viability (NCI-H1915; first compound 0.01 µM) of 0.303 and a relative viability (NCI-H1915; first compound 0.03162 µM) of 0.306. It also gave a relative viability (NCI-H1915; first compound 0.1 µM) of 0.361, a relative viability (NCI-H1915; first compound 0.3162 µM) of 0.286 and a relative viability (NCI-H1915; first compound 1 µM) of 0.297. The relative viability (NCI-H2009; first compound 0.01 µM) was 0.299, the relative viability (NCI-H2009; first compound 0.03162 µM) was 0.316 and the relative viability (NCI-H2009; first compound 0.1 µM) was 0.347. For the same molecule, the relative viability (NCI-H2009; first compound 0.3162 µM) was 0.292, the relative viability (NCI-H2009; first compound 1 µM) was 0.246 and the relative viability (NCI-H23; first compound 0.01 µM) was 0.795. For the same molecule, the relative viability (NCI-H23; first compound 0.03162 µM) was 1, the relative viability (NCI-H23; first compound 0.1 µM) was 0.904 and the relative viability (NCI-H23; first compound 0.3162 µM) was 0.925. For the same molecule, the relative viability (NCI-H23; first compound 1 µM) was 0.878, the relative viability (NCI-H2228; first compound 0.01 µM) was 0.586 and the relative viability (NCI-H2228; first compound 0.03162 µM) was 0.589. It also gave a relative viability (NCI-H2228; first compound 0.1 µM) of 0.793, a relative viability (NCI-H2228; first compound 0.3162 µM) of 0.536 and a relative viability (NCI-H2228; first compound 1 µM) of 0.431. The relative viability (HOP-62; first compound 0.01 µM) was 0.67, the relative viability (HOP-62; first compound 0.03162 µM) was 0.726 and the relative viability (HOP-62; first compound 0.1 µM) was 0.828. It also gave a relative viability (HOP-62; first compound 0.3162 µM) of 0.707, a relative viability (HOP-62; first compound 1 µM) of 0.417 and a relative viability (HCC-827; first compound 0.01 µM) of 0.338. For the same molecule, the relative viability (HCC-827; first compound 0.03162 µM) was 0.245, the relative viability (HCC-827; first compound 0.1 µM) was 0.352 and the relative viability (HCC-827; first compound 0.3162 µM) was 0.335. It also gave a relative viability (HCC-827; first compound 1 µM) of 0.299, a relative viability (SW 1573; first compound 0.01 µM) of 0.355 and a relative viability (SW 1573; first compound 0.03162 µM) of 0.537. The relative viability (SW 1573; first compound 0.1 µM) was 0.457, the relative viability (SW 1573; first compound 0.3162 µM) was 0.482 and the relative viability (SW 1573; first compound 1 µM) was 0.326. The relative viability (SK-LU-1; first compound 0.01 µM) was 0.158, the relative viability (SK-LU-1; first compound 0.03162 µM) was 0.163 and the relative viability (SK-LU-1; first compound 0.1 µM) was 0.177. For the same molecule, the relative viability (SK-LU-1; first compound 0.3162 µM) was 0.194, the relative viability (SK-LU-1; first compound 1 µM) was 0.13 and the relative viability (A-427; first compound 0.01 µM) was 0.749. For the same molecule, the relative viability (A-427; first compound 0.03162 µM) was 0.647, the relative viability (A-427; first compound 0.1 µM) was 0.924 and the relative viability (A-427; first compound 0.3162 µM) was 0.646. It also gave a relative viability (A-427; first compound 1 µM) of 0.565, a relative viability (HARA; first compound 0.01 µM) of 0.284 and a relative viability (HARA; first compound 0.03162 µM) of 0.246. It also gave a relative viability (HARA; first compound 0.1 µM) of 0.312, a relative viability (HARA; first compound 0.3162 µM) of 0.142 and a relative viability (HARA; first compound 1 µM) of 0.237. For the same molecule, the relative viability (NCI-H1792; first compound 0.01 µM) was 0.734, the relative viability (NCI-H1792; first compound 0.03162 µM) was 0.849 and the relative viability (NCI-H1792; first compound 0.1 µM) was 0.837. The relative viability (NCI-H1792; first compound 0.3162 µM) was 0.671 and the relative viability (NCI-H1792; first compound 1 µM) was 0.475.

From the supplement of paper PMC10307832
